Measured values published in ChEMBL document CHEMBL1134100, “An unhydrolyzable analogue of N-(4-hydroxyphenyl)retinamide. synthesis and preliminary biological studies” (Bioorg Med Chem Lett, 2001).

How the values were obtained:
Rattus norvegicus [1] = test: Effect on total mammary tumor volume in female rats on day 14 after a diet additive of 2 mmol/kg (+/-S.E) (p<0.05); format: functional
[2] = biological target: T1, Retinoic acid receptor gamma (Homo sapiens, UniProt P13631); test: Binding affinity against Retinoic acid receptor gamma
T1 sequence (P13631 whole entry): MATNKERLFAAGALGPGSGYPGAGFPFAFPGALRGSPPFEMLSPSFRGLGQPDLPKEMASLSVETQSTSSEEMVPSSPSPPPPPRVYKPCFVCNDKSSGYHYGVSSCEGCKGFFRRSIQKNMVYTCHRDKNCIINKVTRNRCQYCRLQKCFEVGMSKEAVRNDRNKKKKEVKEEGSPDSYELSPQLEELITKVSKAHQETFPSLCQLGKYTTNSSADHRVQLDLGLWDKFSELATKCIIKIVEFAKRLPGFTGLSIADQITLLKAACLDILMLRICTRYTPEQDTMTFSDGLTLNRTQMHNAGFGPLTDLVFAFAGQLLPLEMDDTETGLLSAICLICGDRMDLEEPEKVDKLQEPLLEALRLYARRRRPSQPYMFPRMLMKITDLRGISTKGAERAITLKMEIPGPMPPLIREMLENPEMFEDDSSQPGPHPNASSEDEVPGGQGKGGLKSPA

Rattus norvegicus [3] = test: % change in the mean tumor volume in female rats on 21 days after a diet additive of 2 mmol/kg of the compound; format: functional
Rattus norvegicus [4] = test: Effect on total mammary tumor volume in female rats on day 21 after a diet additive of 2 mmol/kg (+/-S.E) (p<0.05); format: functional
Rattus norvegicus [5] = test: Effect on total mammary tumor volume in female rats on day 7 after a diet additive of 2 mmol/kg (+/-S.E) (p<0.05); format: functional
Rattus norvegicus [6] = test: Effect on total mammary tumor volume in female rats on day 1 after a diet additive of 2 mmol/kg (+/-S.E) (p<0.05); format: functional

For CC1=C(/C=C/C(C)=C/C=C/C(C)=C/C(=O)Cc2ccc(O)cc2)C(C)(C)CCC1, the Mean tumor volume (Rattus norvegicus [1]) was 0.15 cm*3, the Ki [2] was over 4 µM and the Change (Rattus norvegicus [3]) was -85%. For the same compound, the Mean tumor volume (Rattus norvegicus [4]) was 0.09 cm*3, the Mean tumor volume (Rattus norvegicus [5]) was 0.47 cm*3 and the Mean tumor volume (Rattus norvegicus [6]) was 0.59 cm*3.

With CC1=C(/C=C/C(C)=C/C=C/C(C)=C/C(=O)O)C(C)(C)CCC1 [TRETINOIN] the Mean tumor volume (Rattus norvegicus [1]) was 0.27 cm*3, the Change (Rattus norvegicus [3]) was -74% and the Mean tumor volume (Rattus norvegicus [4]) was 0.18 cm*3. For the same compound, the Mean tumor volume (Rattus norvegicus [5]) was 0.46 cm*3 and the Mean tumor volume (Rattus norvegicus [6]) was 0.69 cm*3.

Work on CC1=C(/C=C/C(C)=C/C=C/C(C)=C/C(=O)Nc2ccc(O)cc2)C(C)(C)CCC1 [FENRETINIDE] yielded a Mean tumor volume (Rattus norvegicus [1]) of 0.1 cm*3, a Ki [2] of over 0.4 µM and a Change (Rattus norvegicus [3]) of -77%. It also gave a Mean tumor volume (Rattus norvegicus [4]) of 0.05 cm*3, a Mean tumor volume (Rattus norvegicus [5]) of 0.17 cm*3 and a Mean tumor volume (Rattus norvegicus [6]) of 0.2 cm*3.
